Data set [1] is described as follows: subcutaneous U266 myeloma xenograft (plasmacytoma model). The settings on record: male, NOD/SCID (NOD.CB17-Prkdcscid/IcrCrl), mouse, plasma, sc; continual infusion 14.5 mg/kg/day; SEM, n=16; read-out: plasma concentration at the steady state. The class given is in vivo, mice.
The next data set can be described thus: plasma stability. The class given is in vitro ADME, human. An excerpt: (§1) Pharmacophore Model Building
(§2) The pharmacophore predictive
(§3) Broad- Panel Kinase Profiling
(§4) according to in-house protocols therein.
(§5) Pharmacokinetic Anal yses
(§6) In vitro pharmacok inetic assays were […]

Another data set can be described thus: microsomal stability. Type of data set: in vitro ADME, human.
Excerpt: as §1, §2, §3, §4, §5, §6

On to `CC(=O)N[C@H](Cc1ccc(O)cc1)C(=O)N[C@H](CCCNC(=N)N)C(=O)N[C@H](Cc1ccccc1)C(N)=O` [DTP3, Ac-YRF-NH2], for which the level at time molar in data set [1] is 700 ± 90 nM. For the same compound, the “plasma stability (human)” value in the data set “plasma stability” was above 48 h. Moreover, in the data set “microsomal stability”, the “microsomal stability (human)” value was 4.87 ± 1.24 µL/min/mg protein. In addition, the half-life in “microsomal stability” (human, microsomes, read-out: microsomal stability (human) t½) stood at 4.75 h.

The record behind these values is PMC4197335, “Cancer-Selective Targeting of the NF-κB Survival Pathway with GADD45β/MKK7 Inhibitors” (Cancer Cell, 2014).
